Experiments:
[1] = forms otherwise stable and appropriate; background statement; cited from earlier work
fungus organisms = conditions: background statement; cited from earlier work
physchem = conditions: water, pH 2, water

Row | Compound | solubility in methanol at pH 9.5 (in words) | water solubility (background, in words) [1] | antifungal properties (fungus organisms) | development of resistant strains or forms (fungus organisms) | solubility (physchem) [µg/mL] | amount soluble in 750 ml of methanol (solubility in methanol; 750 ml methanol) [mg] | extent of solubilization in methanol (solubility in methanol; 100 mg added to 750 ml methanol) [%] | extent of solubility in methanol at pH 9.5 (solubility in methanol; 100 mg in 80 ml methanol, pH adjusted to 9.5 with triethylamine) [%]
1 | C[C@@H]1[C@H](O)[C@@H](C)/C=C/C=C/C=C/C=C/C=C/C=C/C=C/[C@H](O[C@@H]2O[C@H](C)[C@@H](O)[C@H](N)[C@@H]2O)C[C@@H]2O[C@](O)(C[C@@H](O)C[C@@H](O)[C@H](O)CC[C@@H](O)C[C@@H](O)CC(=O)O[C@H]1C)C[C@H](O)[C@H]2C(=O)O [amphotericin B] | completely soluble | lack of adequate water solubility | powerful antifungal properties | apparent inability of fungus organisms to develop readily any strains or forms that are resistant to amphotericin B | < 1000 | 100 | – | –
2 | Amphotericin B-Calcium-Oxalic Acid Complex [Example 1] | – | – | – | – | – | – | 40 | 35

From patent US4049898A (priority 1975, dated 1977)
